The conditions of data set [1]: 500 μM diphenylpicrylhydrazyl, cell free; cited from earlier work.
Data set [2] deals with intramitochondrial ROS in neurons. Description: ROS examination with DHR 123 in neurons. In kind it is cell-based, Sprague-Dawley rats. The note with it: 10 μM PAN-811; 100 μM MTX and 25 μM 5-FU; 1 day. The source says: Neuronal Cell Culture. […] Since AOs, including vitamin E, vitamin E acetate, superoxide dismutase (SOD), catalase (CAT), and GSH, are additives to culture medium, reduction of AO concentration in culture medium provides an approach to determine the level of OS involvement in a neurotoxic process. In our study, the culture medium was replaced at a 50% ratio with NB plus B27 minus AOs twice at days 7 and 9 to set AO concentrations as 50% and 25%, respectively. […] Cell Insults and Treatments. Determination of concentration for each anticancer drug in our experiments was based on its reported concentration in human cerebral spinal fluid (CSF) in chemotherapy, literature report of its neurotoxicity in culture, and our preliminary in vitro experimental data. […] For ROS examination, the neurons were insulted with both 100 μM of MTX and 25 μM of 5-FU by 15 d.i.v. […] ROS Examination. […] Fluorescence was photographed by using a fluorescentmicroscope and quantified by excitation at 485 nm and emission at 520 nm using a 96-well plate reader (Model 550, Bio-Rad). […] Data were generated from 4-6 replicate wells, expressed as mean±standard deviation (SD), and statistically evaluated at a significance level of 1% with one factor ANOVA or Student's t-test by using software […] […]

Data set [3] has as its system mixed cortical and striatal neurons. Description: MTS assay (cell viability) in neuronal cell culture. In kind it is cell-based. On the procedure:
Neuronal Cell Culture. Mixed cortical and striatal neurons fromembryonic day 17 male Sprague-Dawley rats (tissue obtained from NIH) were seeded into poly-D-lysine coated 96-well plates at density of 50,000 cells/well and initially cultured at 37° C., 5% CO2, in neurobasal medium (NB) with B27 supplement (Invitrogen) containing full strength of AOs to obtain highly enriched (95%) neurons. Since AOs, including vitamin E, vitamin E acetate, superoxide dismutase (SOD), catalase (CAT), and GSH, are additives to culture medium, reduction of AO concentration in culture medium provides an approach to determine the level of OS involvement in a neurotoxic process. In our study, the culture medium was replaced at a 50% ratio with NB plus B27 minus AOs twice at days 7 and 9 to set AO concentrations as 50% and 25%, respectively. At 16 days in vitro (d.i.v.), a fraction of the culture medium was harvested for lactate dehydrogenase (LDH) assay, and then AO concentration was reduced to 12.5% and cultured for a further 5 hours prior to ending the experiment.
Cell Insults and Treatments. Determination of concentration for each anticancer drug in our experiments was based on its reported concentration in human cerebral spinal fluid (CSF) in chemotherapy, literature report of its neurotoxicity in culture, and our preliminary in vitro experimental data. At 13 d.i.v., the neuronal cell cultures were insulted with 100 μM of MTX (M9929, Sigma), 25 μM of 5-FU (F6627, Sigma), or 3.5 μM of CDDP (sc-200896, Santa Cruz) for 3 days in absence or presence of PAN 811.Cl.H2O. For ROS examination, the neurons were insulted with both 100 μM of MTX and 25 μM of 5-FU by 15 d.i.v. PAN-811.Cl.H2O was added to cultures to final concentrations of 1.25, 2.5, 5, and 10 μM at the same time as addition of the anticancer drugs. For cancer cell lines, the cells were insulted by the second day of cell seeding with the same concentration of MTX, 5-FU, or CDDP as used in neuronal culture in the absence or presence of 10 μM PAN-811.Cl.H2O for another 3 days.
Quantitative Assays and Morphological Assessment. Cell membrane integrity and mitochondrial function of either neurons or cancer cells were measured with LDH and 3-(4,5-dimethylthiazol-2-yl)-5-(3-carboxymethoxyphenyl)-2-(4-sulfophenyl)-2H-tetrazolium [MTS] analyses, respectively. The latter has been used to quantify cell survival. For the LDH assay, a mixture of a 35 μL aliquot of culture supernatant and 17.5 μL of Mixed Substrate, Enzyme and Dye Solutions (Sigma) was incubated at room temperature (RT) for 30 minutes. For the MTS assay, 10 μL of MTS reagent (Promega) was added to a culture well containing neurons in 50 μL of medium. The preparations were incubated at 37° C. for 2 hours. The preparations for both assays were then spectrophotometrically measured at 490 nm using a 96-well plate reader (Mode 550, Bio-Rad). Neuronal cell death was morphologically determined based on the integrity of the cell soma and continuity of neuronal processes. The change in number of cancer cells was judged directly by cell density. Cells were photographed under an inverted phase contrast microscope (IX 70, Olympus) using 10× or 20× objective.
Data Analysis. Data were generated from 4-6 replicate wells, expressed as mean±standard deviation (SD), and statistically evaluated at a significance level of 1% with one factor ANOVA or Student's t-test by using software VASSARSTATS (http://vassarstats.net/) followed by the Tukey HSD test. Figure symbols are as follows: #, P<0.05, and ##, P<0.01, compared with control; *, P<0.05, and **, P<0.01, compared with the insulted group; §§, P<0.01, compared with PAN-811 treated group by Student's t-test.
(Tetrazolium dyes change colour on reduction, which living cells bring about.)

The test system of another data set is rat, arterial occlusion. The note with it: i.c.v., 50 μg per rat at 1 h after arterial occlusion; cited from earlier work.
Another data set addresses T1, ribonucleotide reductase (Homo sapiens, UniProt P31350).
T1 sequence (P31350 1-389): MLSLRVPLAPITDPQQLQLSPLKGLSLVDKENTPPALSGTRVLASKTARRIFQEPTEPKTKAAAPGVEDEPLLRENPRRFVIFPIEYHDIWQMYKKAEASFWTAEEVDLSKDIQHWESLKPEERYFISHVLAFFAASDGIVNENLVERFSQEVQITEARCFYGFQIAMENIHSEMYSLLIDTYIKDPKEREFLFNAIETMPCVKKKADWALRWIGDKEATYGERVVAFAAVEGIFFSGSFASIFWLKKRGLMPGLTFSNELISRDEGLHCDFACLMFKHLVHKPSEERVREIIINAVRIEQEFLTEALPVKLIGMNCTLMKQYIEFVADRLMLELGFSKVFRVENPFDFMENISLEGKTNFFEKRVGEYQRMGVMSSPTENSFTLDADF
The following applies: cited from earlier work.

Consider `NC(=S)N/N=C/c1ncccc1N` [PAN-811, 3-aminopyridine-2-carboxaldehyde thiosemicarbazone], for which, in data set [1], the “reduction of stable free radical diphenylpicrylhydrazyl” value is listed as 70%. Besides, the “suppression rate of increased ROS (DHR123)” value in data set [2] came out at 62.3%. Moreover, the “inhibition of CDDP-induced MTS reduction” value in data set [3] (10 μM PAN-811, 3.5 μM CDDP, 12.5% AO) is 48%. For the same molecule, the “5-FU-induced MTS reduction” value in data set [3] (10 μM PAN-811, 25 μM 5-FU, 12.5% AO) is listed as “completely blocked”. Further, the “5-FU- or CDDP-induced MTS reduction, dose dependence” value in data set [3] (neurons in 12.5% AO, PAN-811 1.25-10 μM) was “dose-dependently inhibited”. The “reduction of infarct volume” value in the data set with rat, arterial occlusion was 59%. The “ability to inhibit ribonucleotide reductase” value at ribonucleotide reductase was “inhibit”.

These data come from patent publication US10525044B2, “Treatment for chemotherapy-induced peripheral neuropathy” (priority 2013, dated 2020).
